From patent US20100099130A1, “METHODS AND DEVICES FOR MONITORING PLATELET FUNCTION” (PLACOR INC., priority 2006, published 2010)

Legend:
[1] = tested on: platelets; assay: Platelet Reactivity Test (PRT), time to platelet mass formation in whole blood of volunteers; assay type: in vivo, human; details: after taking aspirin, most volunteers; without aspirin the test concludes in less than 100 seconds
Description: The PRT test is used to activate platelet gel formations using a small (20 microliter) whole blood sample to help identify proper platelet function in the absence of platelet drug therapy and to identify inhibited platelet function in the presence of platelet drug therapy. The test is performed by running a small quantity of blood through a channel restriction that will induce the formation of platelet gels and trap them in a focused area similar to the way platelets are activated and focused in the body. Cartridge 150 has capillary tube inlet 160 that can receive a capillary tube filled with blood. A capillary tube filled with blood can be attached to capillary tube port 200. Conduit 230 leads from capillary tube port 200 to junction 270 and junction 270 splits into conduit 250 and passageways 240, 260. Conduit 250 and passageways 240, 260 include overflow wells 280. Conduit 250 and passageways 240, 260 lead to ports 180, 170, 190, respectively. […] In a preferred embodiment, the cartridge 150 has a bar code that is read by the instrument 400. […] The instrument 400 will report the average of the platelet reactivity times determined from the blood in passageways 240 and 260. […] If the two platelet reactivity times determined from the blood in passageways 240 and 260 are greatly different, the instrument will indicate that the test is invalid. […]

[2] = tested on: platelet adhesion; details: long-term aspirin therapy; cited from earlier work

## CC(=O)Oc1ccccc1C(=O)O [aspirin]
[1]
  PRT (platelet reactivity time): greater than 150 seconds
[2]
  individuals who do not achieve inhibition of platelet adhesion: up to 30%
